Assay results from patent publication US20240325370A1, “THERAPEUTIC REGIMENS OF A DEGRADER OF BRD9” (FOGHORN THERAPEUTICS INC., priority 2021, published 2024).

How the values were obtained:
[1] = system: ASKA synovial sarcoma xenografts; test: ASKA synovial sarcoma xenograft efficacy; format: in vivo; settings: for Tumor Growth (%) on Day 21 / Tumor Size (mm^3) on Day 21: Mean ± SEM; for T/C (%) / TGI (%): Day 21
Description: A study was conducted to examine anti-tumor efficacy of compound S-D1 with BIW IV dosing of the racemate, compound D1, for 3 weeks utilizing a second xenograft model of human synovial sarcoma, ASKA. Vehicle (0.5% HPMC, 0.1% Tween 80 in water, pH 1.3 to 1.5), administered orally, was used as the general comparator for all test article responses (i.e., tumor growth and body weight changes). Pazopanib and ifosfamide, two agents currently used in clinic to treat synovial sarcoma patients were compared to compound D1 treatment alone. Pazopanib was administered orally at 40 mg/kg QD and ifosfamide was given IV at 80 mg/kg QD for the first 3 days (Days 0, 1, and 2) in the 3-week treatment period, mimicking the equivalent treatment regimens for both drugs in human patients.

BRD9 = biological target: T1, BRD9 (Homo sapiens, UniProt Q9H8M2); test: Kinetic experiments of BRD9 degradation in synovial sarcoma cell lines; format: cell-based
T1 sequence (Q9H8M2 1-597): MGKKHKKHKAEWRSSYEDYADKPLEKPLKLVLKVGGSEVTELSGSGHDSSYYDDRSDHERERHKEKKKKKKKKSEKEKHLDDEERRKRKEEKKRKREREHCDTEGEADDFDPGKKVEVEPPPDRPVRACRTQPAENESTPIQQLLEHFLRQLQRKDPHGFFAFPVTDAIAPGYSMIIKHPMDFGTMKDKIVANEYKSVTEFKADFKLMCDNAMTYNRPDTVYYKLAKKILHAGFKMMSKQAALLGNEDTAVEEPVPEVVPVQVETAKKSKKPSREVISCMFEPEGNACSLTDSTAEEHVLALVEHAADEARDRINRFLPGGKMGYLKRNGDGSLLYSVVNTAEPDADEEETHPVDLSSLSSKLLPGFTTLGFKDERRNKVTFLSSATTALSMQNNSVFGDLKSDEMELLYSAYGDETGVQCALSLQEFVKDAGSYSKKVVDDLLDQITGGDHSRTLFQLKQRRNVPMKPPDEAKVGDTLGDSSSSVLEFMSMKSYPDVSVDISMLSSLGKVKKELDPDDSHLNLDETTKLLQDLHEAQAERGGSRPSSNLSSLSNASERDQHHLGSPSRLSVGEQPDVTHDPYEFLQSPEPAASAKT
Description: Kinetic Experiments in Synovial Sarcoma Cell Lines. To assess the rate of BRD9 protein degradation following treatment with compound D1, this compound was administered at a steady dose of 15 nM over multiple time points in SYO-1 and ASKA synovial sarcoma cell lines. After cell treatment, BRD9 protein levels were determined by western blot analyses.
Cells grown in flasks to log phase growth were washed with PBS and dissociated by adding TrypLE™ Express. Two wells were allocated per sample. Plates were incubated at 37° C. with 5% CO2 overnight.
The next day, cells were treated with 15 nM compound D1, with the final DMSO content of 0.1% (v/v) matching the untreated control. After the designated incubation periods for each sample, as indicated in FIGS. 29A and 29B, cells were harvested, resuspended in PBS, and centrifuged at 5,000 rpm for 5 minutes. After being washed twice with PBS, the resulting cell pellets were stored at −80° C.
Cells were processed for western blot analysis as follows (see Table 15 for specific conditions). Cell lysates were prepared by resuspending thawed pellets in RIPA lysis buffer with protease and phosphatase inhibitors and DNA nuclease enzymes. […] Samples were then analysed for total protein using BCA protein quantitation assay following manufacturer's instructions. […]

[2] = system: SYO-1 synovial sarcoma xenograft; test: Intermittent dosing schedules, IP, SYO-1 synovial sarcoma xenograft efficacy; format: in vivo, mice; settings: for Day 21 Tumor Growth (%) / Day 21 Tumor Size (mm^3): SYO-1 tumor-bearing NOD SCID mice, Mean ± SEM
Excerpt: The racemate, compound D1, which consists of ˜50% compound S-D1, was utilized in an SYO-1 (a synovial sarcoma xenograft) model to explore if similar efficacy is achievable with an intermittent dosing schedule. Due to technical feasibility and animal-welfare considerations, intraperitoneal (IP) administration was chosen over the IV route. […] Groups of female SYO-1 tumor-bearing NOD SCID mice (n=8/group) were intraperitoneally administered with vehicle or compound D1 for 21 days. Compound D1 was formulated as a suspension in 10% DMSO/40% PEG400/50% deionized water, volume/volume (v/v). […] To determine the level of modulation of BRD9 after each regimen, mice (n=4 mice/time-point) were euthanized and tumor samples were collected at different timepoints post-last dose (Day 21). […] BRD9 levels were assessed at 24, 72 and 168 hours (expected time points of trough plasma concentrations) for QD, BIW, and QW regimens respectively, as indicated in Table 8. Samples were analyzed using Western blot method.

[3] = 0.1 mg/kg BIW IV 3 weeks, ASKA xenograft
[4] = 0.5 mg/kg BIW IV 3 weeks, ASKA xenograft
[5] = 2 mg/kg BIW IV 3 weeks, ASKA xenograft
[6] = 0.5 or 2 mg/kg BIW IV, ASKA xenograft
[7] = 0.1 mg/kg QD × 21 days IP, Day 21
[8] = 0.35 mg/kg BIW × 3 weeks IP, Day 21
[9] = 0.5 mg/kg QD × 21 days IP, Day 21
[10] = 0.7 mg/kg QW × 3 weeks IP, Day 21
[11] = 3.5 mg/kg QW × 3 weeks IP, Day 21

Question: Which results are given for `COc1cc(-c2cn(C)c(=O)c3cnc(N4CCC4)cc23)cc(OC)c1CN1CCC(CN2CCC3(CC2)CN(c2ccc4c(c2)C(=O)N(C2CCC(=O)NC2=O)C4)C3)CC1` (racemic) [Compound D1, 3-[6-(7-[[1-([4-[6-(azetidin-1-yl)-2-methyl-1-oxo-2,7-naphthyridin-4-yl]-2,6-dimethoxyphenyl]methyl)piperidin-4-yl]methyl]-2,7-diazaspiro[3.5]nonan-2-yl)-1-oxo-3H-isoindol-2-yl]piperidine-2,6-dione]?
Answer: Tumor Growth (%) on Day 21 [1, 3]: 440 ± 46%; Tumor Size (mm^3) on Day 21 [1, 3]: 634 ± 82 mm^3; T/C (%) ([1]; 0.1 mg/kg BIW IV 3 weeks): 36.1%; TGI (%) ([1]; 0.1 mg/kg BIW IV 3 weeks): 63.9%; Tumor Growth (%) on Day 21 [1, 4]: 121 ± 13%; Tumor Size (mm^3) on Day 21 [1, 4]: 175 ± 26 mm^3; T/C (%) ([1]; 0.5 mg/kg BIW IV 3 weeks): 9.9%; TGI (%) ([1]; 0.5 mg/kg BIW IV 3 weeks): 90.1%; Tumor Growth (%) on Day 21 [1, 5]: 92 ± 6%; Tumor Size (mm^3) on Day 21 [1, 5]: 130 ± 10 mm^3; T/C (%) ([1]; 2 mg/kg BIW IV 3 weeks): 7.6%; TGI (%) ([1]; 2 mg/kg BIW IV 3 weeks): 92.4%; tumor response [1, 6]: Tumor stasis; tumor stasis continued after the cessation of dosing [1, 6]: approximately 15 days; BRD9 protein degradation (BRD9; ASKA cells, upon 30 minutes of treatment, 15 nM): nearly complete BRD9 protein degradation; time of treatment to markedly deplete BRD9 protein (BRD9; SYO-1 cells, 100-fold of NanoLuc DC50 (15 nM)): ≤ 2 h; T/C (%) [2, 7]: 25.4%; TGI (%) [2, 7]: 74.6%; Day 21 Tumor Growth (%) ([2]; 0.1 mg/kg QD × 21 days IP): 535 ± 39%; Day 21 Tumor Size (mm^3) ([2]; 0.1 mg/kg QD × 21 days IP): 552 ± 59 mm^3; T/C (%) [2, 8]: 49.0%; TGI (%) [2, 8]: 51.0%; Day 21 Tumor Growth (%) ([2]; 0.35 mg/kg BIW × 3 weeks IP): 1033 ± 64%; Day 21 Tumor Size (mm^3) ([2]; 0.35 mg/kg BIW × 3 weeks IP): 1179 ± 117 mm^3; T/C (%) [2, 9]: 13.4%; TGI (%) [2, 9]: 86.6%; Day 21 Tumor Growth (%) ([2]; 0.5 mg/kg QD × 21 days IP): 284 ± 21%; Day 21 Tumor Size (mm^3) ([2]; 0.5 mg/kg QD × 21 days IP): 341 ± 57 mm^3; T/C (%) [2, 10]: 45.1%; TGI (%) [2, 10]: 54.9%; Day 21 Tumor Growth (%) ([2]; 0.7 mg/kg QW × 3 weeks IP): 951 ± 115%; Day 21 Tumor Size (mm^3) ([2]; 0.7 mg/kg QW × 3 weeks IP): 1065 ± 107 mm^3; T/C (%) [2, 11]: 18.0%; TGI (%) [2, 11]: 82.0%; Day 21 Tumor Growth (%) ([2]; 3.5 mg/kg QW × 3 weeks IP): 379 ± 43%; Day 21 Tumor Size (mm^3) ([2]; 3.5 mg/kg QW × 3 weeks IP): 449 ± 69 mm^3; TGI compared to the vehicle control ([2]; all dosing regimens, IP, Day 21): significant TGI
